Reference: US20070225334A1, “Methods for treating cognitive and other disorders” (Wyeth, priority 2006, published 2007)

How the values were obtained:
5-HT2C receptor [1] = biological target: T1, 5-HT2C receptor (Homo sapiens, UniProt P28335); assay: 5-HT2C receptor affinity; assay type: binding
T1 sequence (P28335 33-458): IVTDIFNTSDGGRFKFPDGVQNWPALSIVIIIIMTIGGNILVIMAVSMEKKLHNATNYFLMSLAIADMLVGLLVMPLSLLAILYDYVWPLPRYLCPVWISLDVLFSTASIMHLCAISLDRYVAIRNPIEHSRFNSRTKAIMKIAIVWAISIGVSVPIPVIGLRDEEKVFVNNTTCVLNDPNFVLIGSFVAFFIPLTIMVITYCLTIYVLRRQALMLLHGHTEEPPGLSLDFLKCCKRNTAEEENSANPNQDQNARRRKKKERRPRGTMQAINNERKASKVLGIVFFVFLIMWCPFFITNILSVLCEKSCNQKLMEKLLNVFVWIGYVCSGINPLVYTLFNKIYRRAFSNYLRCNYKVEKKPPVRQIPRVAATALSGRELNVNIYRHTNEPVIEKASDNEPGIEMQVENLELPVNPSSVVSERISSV

[2] = test system: normal eating and drinking behavior; assay: Modified procedure for normal feeding and drinking behavior (120 pellets at session start); assay type: in vivo, Sprague-Dawley rat; conditions: 1 mg/kg
Description: In order to determine if Compound 1 would affect normal eating and drinking behavior, Compound 1 or vehicle was tested under modified conditions. Under these modified conditions, 120 food pellets were placed into the food trough at the beginning of the session and no further food pellets were dispensed. At the end of the test session, the volume of water and the number of food pellets consumed by each rat were measured as described earlier.
(§1) Water consumption was calculated and expressed as percent (%) of vehicle control intake. Results were analyzed using a one-way ANOVA with least significant difference (LSD) post-hoc test. […] Where appropriate, ED50 values (dose that decreases adjunctive water intake to 50% of vehicle values) were calculated using a logistic dose response analysis.

[3] = test system: extracellular glutamate levels in the rat mPFC; assay: In vivo microdialysis, extracellular glutamate in mPFC; set-up: species or system Sprague-Dawley rat; conditions: 1.7 mg/kg s.c., acute, F(1,15)=4.76, P=0.0454 vs vehicle
Description: (§2) Animals: Adult male Sprague-Dawley rats (Charles River, Wilmington, Mass.) weighing 280-350 g at the time of surgery were used for all microdialysis experiments. Adult male Long-Evans rats (Charles River, Wilmington, Mass.) weighing 180-220 g were used for NOR studies. Rats were housed individually for recognition memory studies. All animals had free access to food and water and were group housed in the AAALAC-accredited facility that was maintained on a 12 h light dark cycle (lights on at 0600 h) for at least 1 week prior to surgery or behavioral testing. All in vivo studies were performed in accordance to the ‘Guide for the Care and Use of Laboratory Animals’ as adopted and promulgated by the National Institutes of Health (Pub. 85-23, 1985).
Stereotaxic Surgery Following induction of anesthesia with 3% halothane (Fluothane; Zeneca, Cheshire, UK), animals were secured in a stereotaxic frame with ear and incisor bars (David Kopf, Tujunga, Calif.). Anesthesia was maintained by continuous administration of halothane (1-2%) while a microdialysis guide cannula (CMA/12, CMA Microdialysis, Stockholm, Sweden) was implanted above the dorsal hippocampus (AP: −4.3 mm ML: −2.6 mm DV: −2.1 mm) or the medial prefrontal cortex (AP: 3.2 mm ML: −0.6 mm DV: −3.8 mm). […]
Dialysate (10 μL) was collected and analyzed for extracellular glutamate concentrations. […]

5-HT2C receptor [4] = biological target: T1, 5-HT2C receptor; assay: 5-HT2C receptor agonist function; assay type: biochemical
[5] = test system: acetylcholine in medial prefrontal cortex; assay: In vivo microdialysis, acetylcholine in medial prefrontal cortex; set-up: species or system Sprague-Dawley rat; conditions: 1.7 mg/kg s.c.
Description: as §2, with “1985). […]” for “1985).”
Analysis of Acetylcholine Dialysate levels of acetylcholine were determined using LC/MS/MS. […]
Acetylcholine data were quantified using peak area against an internal standard and acquired using Masslynx software (Micromass, Beverly, Mass., USA). The mean of the concentration of baseline samples was calculated and denoted as 0%. All sample values were expressed as a percent change from this pre-injection mean baseline value (% change from baseline). Neurochemical data, excluding pre-injection values, were analyzed by a two-way analysis of variance (ANOVA) with repeated measures (time). […]

[6] = test system: schedule-induced polydipsia; assay: Schedule-induced polydipsia model of obsessive-compulsive disorder (adjunctive drinking); assay type: in vivo, Sprague-Dawley rat; conditions: for reduction in adjunctive drinking behavior: relative to vehicle
Source text: In this model, a food pellet is delivered once per minute for a two-hour period. A water bottle is available in the test chamber. […] This excessive manifestation of a normal behavior (drinking) provides face validity to the model. […] Most importantly, clinically effective drugs for the treatment of obsessive-compulsive disorder decrease adjunctive drinking.
Male Sprague-Dawley rats weighing 300-400 grams were individually housed in an AALAC-accredited facility that was maintained on a 12-h light dark cycle (lights on at 0600 h) with freely available water. All in vivo studies were performed in accordance to the Guide for the Care and Use of Laboratory Animals as adopted and promulgated by the National Institutes of Health (Pub. 85-23, 1985). Rats were maintained at approximately 85% of their free-feeding body weights by food presented during the session and by post-session feeding.
Procedure Experimental sessions were conducted in a standard operant conditioning chamber placed inside a ventilated sound-attenuating shell that was equipped with white noise to mask extraneous sounds (Med Associates, Georgia, Vt.). A food trough was on the front panel of the chamber and a water bottle was mounted to the side panel. Experimental sessions were 120 minutes in duration and were conducted five days per week (Monday through Friday). Test sessions occurred generally on Tuesdays and Fridays, with the remaining days serving as control days. For each session, one food pellet (Bioserv, 45 mg precision dustless pellet) was dispensed into the food trough each minute for the duration of the session, for a total of 120 pellets being delivered. This schedule of food presentation elicits an abnormal adjunctive drinking behavior in rats such that they consume and exaggerated volume of water, approximately 5-10 fold larger than under normal conditions. Compound 1 or vehicle was administered immediately prior to the start of the experimental session. Each dose of Compound 1 was tested on a separate day, with the appropriate control sessions being conducted prior to each test. At the end of the test session, the volume of water and the number of food pellets that each rat consumed were measured.
as §1

For NC[C@H]1Cc2cc(F)cc(-c3c(Cl)cccc3Cl)c2O1 (stereo in doubt) [Compound 1, (7-(2,6-dichlorophenyl)-5-fluoro-2,3-dihydrobenzofuran-2-yl)methanamine], the Ki (5-HT2C receptor [1]) was 0.37 nM, the “decrease in water consumption relative to vehicle controls” value ([2]; modified procedure (normal drinking)) was 26% and the “rats failing to eat all food pellets presented” value ([2]; modified procedure (normal feeding)) was “two of the six rats tested failed to eat all of the food pellets presented”. For the same molecule, the extracellular glutamate levels [3] was 132%, the EC50 (5-HT2C receptor [4]) was 0.4 nM and the “agonist character at the 5-HT2C receptor” value (5-HT2C receptor [4]) was “potent full agonist”. For the same molecule, the “maximal increase in acetylcholine with respect to baseline” value [5] was 48%, the “reduction in adjunctive drinking behavior” value ([6]; 0.3 mg/kg i.p., p=0.003) was 45% and the “rats not eating all food pellets presented” value ([6]; 1 mg/kg i.p., schedule-induced polydipsia session) was “one of the six rats did not eat all of the food pellets presented”. The “reduction in adjunctive drinking behavior” value ([6]; 1 mg/kg i.p., p<0.0001) was 81%, the “effect on adjunctive drinking behavior” value ([6]; 0.1-1 mg/kg, i.p., acute, F(3,20)=16.91, p<0.0001) was “dose-dependent decrease” and the ED50 ([6]; Rattus norvegicus, ip, 95% CI: 0.22-0.57 mg/kg, read-out: ED50 (dose that decreases adjunctive water intake to 50% of vehicle values)) was 0.36 mg/kg.
